This is an account of results in patent publication US20050019931A1, “Nucleic acids encoding antifungal drug targets and methods of use” (Elitra Pharmaceuticals, Inc., priority 2002, published 2005).

The test system of data set [1] is bar-coded strains bearing heterozygous mutations in HIS3, TUB 1, ALG7, and ERG 11. Particulars: mixed population; HIS3, TUB 1, ALG7, ERG 11 respectively; cited from earlier work.
Data set [2] concerns CaHIS3 (imidazoleglycerol phosphate dehydratase) wild type, heterozygote and GRACE strains. The data set is described as follows: Target level variation whole cell assay: sensitivity of CaHIS3 strains towards 3-aminotriazole. It counts as cell-based, Candida albicans. The note with it: for sensitivity of CaHIS3 GRACE strain minimally expressing CaHIS3 (partial repression, threshold tetracycline): FIG. 6C/6D. From the text: The data derived from these experiments clearly indicate that distinct levels of target gene products synthesized within the pathogen could be directly applied in whole cell assay based drug screens to identify novel antifungal compounds active against novel drug targets validated using the GRACE method.
3-AT is a competitive inhibitor of the enzyme encoded by CaHIS3, imidazoleglycerol phosphate dehydratase, and together serve as a model for a drug and drug target respectively. […] The phenotype observed is consistent with that expected in light of the predicted 7.5 fold overexpression of CaHIS3 determined by Northern bolt analysis (see FIG. 5). […] A third CaHIS3 expression level evaluated for differential sensitivity to 3-AT was produced by partial repression of the GRACE CaHIS3 strain using a threshold concentration of tetracycline 0.1% […].
(§1) Moreover, these experiments clearly indicate how distinct levels of target gene products synthesized within the pathogen could be directly applied in whole cell assay based drug screens to identify novel antifungal compounds against those novel drug targets validated using the GRACE method.

The subject of data set [3] is CaERG11 GRACE strain. The data set is described as follows: GRACE strain drug resistance/sensitivity by increasing and decreasing target expression. It counts as cell-based, Candida albicans.
Description: as §1

Data set [4] relates to C. albicans. The data set is described as follows: Sensitivity of C. albicans to selection antibiotics (dominant selectable markers). Type of data set: cell-based, Candida albicans. From the text:
Several art-known methods are available to create a heterozygote mutant. In less preferred embodiments, auxotrophic markers, such as but not limited to CaURA3, CaHIS3, CaLEU2, or CaTRP1, could be used for gene disruption if desired. However, the preferred method of heterozygote construction in diploid fungi employs a genetically modified dominant selectable marker. C. albicans is sensitive to the nucleoside-like antibiotic streptothricin at a concentration of 200 micrograms per milliliter. The presence of the Escherichia coli SAT1 gene within C. albicans allows acetylation of the drug rendering it nontoxic and permitting the strain to grow in the presence of streptothricin at a concentration of 200 micrograms per milliliter. Expression of the SAT1 gene in C. albicans is made possible by engineering the gene so that its DNA sequence is altered to conform to the genetic code of this organism and by providing a CaACT1 promoter (Morschhauser et al. (1998) Mol. Gen. Genet. 257:412-420) and a CaPCK1 terminator sequence (Leuker et al. (1997) Gene 192: 235-40). This genetically modified marker is referred to as CaSAT1 which is the subject of a copending United States nonprovisional application, published under the publication no. US20010031724, which is incorporated herein by reference in its entirety. […]

For data set [5], the system named is CaALG7 GRACE strain. The data set is described as follows: GRACE strain drug resistance/sensitivity by increasing and decreasing target expression. Type of data set: cell-based, Candida albicans.
Description: as §1

Setting [6] is: inhibitory 3-AT concentration, FIG. 6A.
Setting [7] is: intermediate 3-AT concentration, FIG. 6B.

With `Nc1nc[nH]n1` [3-AT, 3-aminotriazole], in data set [1], the “sensitivity of the bar-coded strain heterozygous for the respective drug target versus other heterozygote bar-coded strains” value is listed as “significantly greater sensitivity”. Also, in data set [2] (setting [6]), the “growth of CaHIS3 heterozygote strain” value is on record as “completely inhibit growth”, the “growth of wild type CaHIS3 strain” value is “completely inhibit growth” and the “phenotype of CaHIS3 GRACE strain overexpressing CaHIS3 (constitutive tetracycline promoter expression)” value is “resistance”. For the same molecule, in data set [2] (setting [7]), the “effect on tetracycline promoter-based overproducing CaHIS3 strain” value was “unable to effect”, the “effect on wild type CaHIS3 strain” value is recorded as “unable to effect” and the “sensitivity of heterozygous CaHIS3 strain (haploinsufficient phenotype)” value is given as “enhanced sensitivity”. The “sensitivity of CaHIS3 GRACE strain minimally expressing CaHIS3 (partial repression, threshold tetracycline)” value in data set [2] (intermediate 3-AT concentration) is listed as “enhanced drug sensitivity relative the heterozygous CaHIS3 strain”. Moreover, the “sensitivity of CaHIS3 GRACE strain minimally expressing CaHIS3 (partial repression, threshold tetracycline)” value in data set [2] (intermediate 3-AT concentration, listed as 3-aminotriazole) is on record as “hypersensitivity”.

On to `OC(Cn1cncn1)(Cn1cncn1)c1ccc(F)cc1F` [fluconazole], for which, in data set [3], the “GRACE strain-specific phenotypes on increasing and decreasing expression of the known drug target” value is “drug resistance and sensitivity phenotypes”. Besides, the “sensitivity of the bar-coded strain heterozygous for the respective drug target versus other heterozygote bar-coded strains” value in data set [1] is on record as “significantly greater sensitivity”.

With streptothricin, in data set [4] (concentration of 200 micrograms per milliliter), the “sensitivity of C. albicans” value is given as “sensitive”.

Consider `CN(CC[C@H](N)CC(=O)N[C@H]1C=C[C@H](n2ccc(N)nc2=O)O[C@@H]1C(=O)O)C(=N)N` [blasticidin], for which, in data set [4] (concentration not given), the “sensitivity of C. albicans” value is on record as “sensitive”.

On to `CCCCNC(=O)n1c(NC(=O)OC)nc2ccccc21` [benomyl], for which the “sensitivity of the bar-coded strain heterozygous for the respective drug target versus other heterozygote bar-coded strains” value in data set [1] is listed as “significantly greater sensitivity”.

For tunicamycin, in data set [5], the “GRACE strain-specific phenotypes on increasing and decreasing expression of the known drug target” value was “drug resistance and sensitivity phenotypes”. Moreover, the “sensitivity of the bar-coded strain heterozygous for the respective drug target versus other heterozygote bar-coded strains” value in data set [1] is “significantly greater sensitivity”.
